This is an account of results in PubChem BioAssay AID732 (Emory University Molecular Libraries Screening Center, 2007).

The structures appear in SMILES notation. Where “and” joins values, the source holds several entries; their conditions need not be identical. Equal entries are not always repeated. Calls of active or inactive are those of the source. The rule behind the calls is not given here.

The test system of the experiment is in vivo angiogenesis, blood vessel count. Nature of the experiment: reduction of blood vessel formation in vivo – HTS, in vivo study (AID 732).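 Note: zebrafish embryos dosed at one day post fertilization; 0% = reference inhibitor and 100% = plate mean.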 As to conditions: hits give low values;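 tested at 30 µM in the well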.
As to `CC(C)NC[C@H](O)c1ccc(O)c(O)c1`, the vessel count % control is 98.1% (inactive) and 72.7% (inactive).

Take `CN(C)[C@@H]1C(=O)C(C(N)=O)=C(O)[C@@]2(O)C(=O)C3=C(O)c4c(O)ccc(Cl)c4[C@@H](O)[C@H]3C[C@@H]12`: the vessel count % control is 87.7% (inactive).

With `NCCC(=O)NCCc1cnc[nH]1`, the vessel count % control was 84.2% (inactive).

In the case of `CNCCCC12CCC(c3ccccc31)c1ccccc12`, the vessel count % control was 92.5% (inactive).

Turning to `Oc1cc2c(cc1O)[C@H]1c3ccccc3CN[C@@H]1CC2`, the vessel count % control was 83.3% (inactive).

In the case of `CC(C)NC[C@H](O)COc1cccc2ccccc12`, the vessel count % control was 94.9% (inactive).

Take `CC(=O)O[C@H]1CC2(C)[C@@H](C[C@@H](O)[C@H]3[C@@]4(C)CC[C@@H](O)[C@@H](C)[C@@H]4CC[C@@]32C)C1=C(CCC=C(C)C)C(=O)O` (stereo partly drawn): the vessel count % control was 100% (inactive).

`C[N+](C)(C)CCOC(=O)CCC(=O)OCC[N+](C)(C)C`: the vessel count % control is 94.4% (inactive).

`Oc1ccc2c3c1O[C@H]1c4[nH]c5c(c4C[C@@]4(O)[C@@H](C2)N(CC2CC2)CC[C@]314)C[C@@]1(O)[C@H]2Cc3ccc(O)c4c3[C@@]1(CCN2CC1CC1)[C@H]5O4`: the vessel count % control is 81.2% (inactive).

In the case of `COc1cc2c(cc1O)CC[C@@H]1[C@@H]2CC[C@]2(C)[C@@H](O)CC[C@@H]12`, the vessel count % control is 83.1% (inactive).

As for `CNC(=O)[C@H]1O[C@@H](n2cnc3c(N)ncnc32)C(O)[C@H]1O` (stereo partly drawn), the vessel count % control is 118% (inactive).

As for `CC[N+](CC)(CC)CCOc1cccc(OCC[N+](CC)(CC)CC)c1OCC[N+](CC)(CC)CC`, the vessel count % control was 101% (inactive).

Take `Cc1oncc1C(=O)Nc1ccc(C(F)(F)F)cc1`: the vessel count % control is 81.6% (inactive).

For the molecule `NC(=O)c1ncn([C@@H]2O[C@H](CO)[C@@H](O)[C@H]2O)c1O`, the vessel count % control is 94.8% (inactive).

Turning to `Cc1scc2c1N(C(=O)CN1CCN(C)CC1)c1ccccc1NC2=O`, the vessel count % control was 93.3% (inactive).

Turning to `COc1ccc(Cl)cc1C(=O)NCCc1ccc(S(=O)(=O)NC(=O)NC2CCCCC2)cc1`, the vessel count % control is 94.8% (inactive).

`Clc1cccc(N2CCNCC2)c1`: the vessel count % control is 101% (inactive).

For `CCCCC1C(=O)N(c2ccccc2)N(c2ccccc2)C1=O`, the vessel count % control was 93.9% (inactive).

For the molecule `O=C(O)C1C2CCC(O2)C1C(=O)O` (stereo not drawn), the vessel count % control was 98.3% (inactive).

As to `CC(C)NC(C)Cc1ccc(I)cc1` (stereo not drawn), the vessel count % control was 109% (inactive).

Take `CCCCCC(O)CCCC(=O)O` (stereo not drawn): the vessel count % control was 101% (inactive).

Take `O=C1C(c2c(O)[nH]c3ccccc23)=Nc2ccc(Br)cc21`: the vessel count % control was 108% (inactive).

For the molecule `CN1CCc2cc(O)c(O)cc2C(c2ccccc2)C1` (stereo not drawn), the vessel count % control was 107% (inactive).

On to `COCc1nc2c([nH]1)c(=O)n(C)c(=O)n2CC(C)C`, for which the vessel count % control was 93% (inactive).

On to `COC[C@H]1OC(=O)c2coc3c2[C@@]1(C)C1=C(C3=O)C2CCC(=O)[C@@]2(C)C[C@H]1OC(C)=O` (stereo partly drawn), for which the vessel count % control is 0% (inactive).

As to `Oc1cc2c(c(Cl)c1O)CCNCC2c1ccccc1` (stereo not drawn), the vessel count % control is 111% (inactive).

As to `C[C@@H](Oc1ccc(Oc2cnc3ccc(Cl)cc3n2)cc1)C(=O)O`, the vessel count % control was 80.3% (inactive).

For the molecule `Cc1ccccc1/C=C/C1=NCCN1`, the vessel count % control is 102% (inactive).

In the case of `Cc1ncc(CNC(=O)N(CCCl)N=O)c(N)n1`, the vessel count % control was 90.1% (inactive).

Regarding `O=C(O)c1cc(=O)c2ccccc2[nH]1`, the vessel count % control was 97.4% (inactive).

As for `Cc1cccc(C)c1NC(=O)C[N+](C)(C)C`, the vessel count % control is 87.6% (inactive).

Regarding `CNCCC(Oc1ccccc1OC)c1ccccc1` (stereo not drawn), the vessel count % control is 113% (inactive).

With `CCn1c(=O)[nH]c2cc(Cl)c(Cl)cc21`, the vessel count % control was 87.7% (inactive).
